According to PubChem BioAssay AID330 (DTP/NCI, 2004):
Several values for one entry are separate records, joined by “and”; a condition that tells them apart may be missing. Identical values can stand only once. Inconclusive results and toxic doses are left out.

Test system: P388 leukemia ip, CD2F1 mice, survival T/C
Assay: NCI In Vivo Anticancer Drug Screen. Data for tumor model P388 Leukemia (intraperitoneal) in CD2F1 (CDF1) mice
Conditions: endpoint: median survival time, higher = longer survival
Outline: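 Mice carrying the transplanted tumor received test compound or vehicle. Survival was recorded in each group, and the value is the treated-group measurement divided by that of the vehicle-treated control group.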

[1] = dose: 200.0 mg/kg/injection, schedule: Q04DX003 (ip), vehicle: saline with Tween-80
[2] = dose: 400.0 mg/kg/injection, schedule: Q04DX003 (ip), vehicle: saline with Tween-80
[3] = dose: 60.0 mg/kg/injection, schedule: Q01DX005 (ip), vehicle: saline with Tween-80
[4] = dose: 120.0 mg/kg/injection, schedule: Q01DX005 (ip), vehicle: saline with Tween-80
[5] = dose: 240.0 mg/kg/injection, schedule: Q01DX005 (ip), vehicle: saline with Tween-80
[6] = dose: 60.0 mg/kg/injection, schedule: Q01DX005 (ip), vehicle: saline
[7] = dose: 120.0 mg/kg/injection, schedule: Q01DX005 (ip), vehicle: saline
[8] = dose: 100.0 mg/kg/injection, schedule: Q01DX009 (ip), vehicle: Klucel (hydroxypropylcellulose) (HPC)

O=C1NC2CCC1CC2
T/C (dose: 50.0 mg/kg/injection, schedule: Q01DX005 (ip), vehicle: suspension in saline): 101 % of control
T/C (dose: 100.0 mg/kg/injection, schedule: Q01DX005 (ip), vehicle: suspension in saline): 97 % of control
T/C (dose: 200.0 mg/kg/injection, schedule: Q01DX005 (ip), vehicle: suspension in saline): 102 % of control

CC(=O)Nc1ccc(NC(C)=O)c2c1C(=O)c1ccccc1C2=O
T/C (dose: 100.0 mg/kg/injection, schedule: Q04DX003 (ip), vehicle: saline with Tween-80): 100 % of control
T/C [1]: 100 % of control
T/C [2]: 100 % of control

COc1ccc2c(c1OC)C1N(C)CCc3cc4c(cc3C1(OC)C2=O)OCO4 (stereo unspecified)
T/C [3]: 93 % of control
T/C [4]: 88 % of control
T/C [5]: 93 % of control

CCOc1c(N=Nc2ccccc2[N+](=O)[O-])c(C)nn1C(=S)S
T/C (dose: 60.0 mg/kg/injection, schedule: Q01DX005 (ip), vehicle: Klucel + Tween-80): 103 % of control
T/C (dose: 120.0 mg/kg/injection, schedule: Q01DX005 (ip), vehicle: Klucel + Tween-80): 97 % of control
T/C (dose: 240.0 mg/kg/injection, schedule: Q01DX005 (ip), vehicle: Klucel + Tween-80): 92 % of control

COc1cc(C=NCc2ccccc2)cc(OC)c1O
T/C (dose: 50.0 mg/kg/injection, schedule: Q04DX003 (ip), vehicle: saline with Tween-80): 103 % of control
T/C [1]: 97 % of control
T/C [2]: 97 % of control

COc1ccc(OC)c2c(=O)cc(C)[nH]c12
T/C (dose: 16.5 mg/kg/injection, schedule: Q01DX009 (ip), vehicle: saline with Tween-80): 107 % of control and 112 % of control
T/C (dose: 25.0 mg/kg/injection, schedule: Q01DX009 (ip), vehicle: saline with Tween-80): 107 % of control and 111 % of control and 121 % of control
T/C (dose: 37.5 mg/kg/injection, schedule: Q01DX009 (ip), vehicle: saline with Tween-80): 113 % of control and 124 % of control
T/C (dose: 50.0 mg/kg/injection, schedule: Q01DX009 (ip), vehicle: saline with Tween-80): 114 % of control
T/C (dose: 100.0 mg/kg/injection, schedule: Q01DX009 (ip), vehicle: saline with Tween-80): 107 % of control
T/C (dose: 200.0 mg/kg/injection, schedule: Q01DX009 (ip), vehicle: saline with Tween-80): 107 % of control

O=P1(NCCCl)OCCCN1CCCl (stereo unspecified)
T/C (dose: 25.0 mg/kg/injection, schedule: Q01DX009 (ip), vehicle: saline): 184 % of control
T/C (dose: 30.0 mg/kg/injection, schedule: Q01DX005 (iv), vehicle: saline): 157 % of control
T/C (dose: 50.0 mg/kg/injection, schedule: Q01DX009 (ip), vehicle: saline): 270 % of control
T/C [6]: 195 % of control
T/C (dose: 60.0 mg/kg/injection, schedule: Q01DX005 (iv), vehicle: saline): 186 % of control
T/C (dose: 100.0 mg/kg/injection, schedule: Q01DX009 (ip), vehicle: saline): 282 % of control
T/C [7]: 280 % of control
T/C (dose: 120.0 mg/kg/injection, schedule: Q01DX005 (iv), vehicle: saline): 241 % of control
T/C (dose: 200.0 mg/kg/injection, schedule: Q01DX009 (ip), vehicle: saline): 111 % of control
T/C (dose: 240.0 mg/kg/injection, schedule: Q01DX005 (ip), vehicle: saline): 280 % of control
T/C (dose: 240.0 mg/kg/injection, schedule: Q01DX005 (iv), vehicle: saline): 252 % of control
T/C (dose: 289.0 mg/kg/injection, schedule: Q01DX001 (ip), vehicle: saline): 233 % of control
T/C (dose: 431.0 mg/kg/injection, schedule: Q01DX001 (ip), vehicle: saline): 582 % of control
T/C (dose: 538.0 mg/kg/injection, schedule: Q01DX001 (ip), vehicle: saline): 582 % of control
T/C (dose: 646.0 mg/kg/injection, schedule: Q01DX001 (ip), vehicle: saline): 242 % of control

Nc1nnc(Cc2ccccc2)n1N
T/C (dose: 15.0 mg/kg/injection, schedule: Q01DX005 (ip), vehicle: saline): 100 % of control
T/C (dose: 30.0 mg/kg/injection, schedule: Q01DX005 (ip), vehicle: saline): 101 % of control
T/C [3]: 98 % of control
T/C [6]: 100 % of control and 117 % of control
T/C [4]: 100 % of control
T/C [7]: 116 % of control
T/C [5]: 94 % of control

ClC1(Cl)C(=C=C2C3CC4CC(C3)CC2C4)C12C1CC3CC(C1)CC2C3 (stereo unspecified)
T/C (dose: 25.0 mg/kg/injection, schedule: Q01DX009 (ip), vehicle: Klucel (hydroxypropylcellulose) (HPC)): 100 % of control
T/C (dose: 50.0 mg/kg/injection, schedule: Q01DX008 (ip), vehicle: Klucel (hydroxypropylcellulose) (HPC)): 101 % of control
T/C (dose: 100.0 mg/kg/injection, schedule: Q01DX008 (ip), vehicle: Klucel (hydroxypropylcellulose) (HPC)): 101 % of control
T/C [8]: 94 % of control
T/C (dose: 200.0 mg/kg/injection, schedule: Q01DX008 (ip), vehicle: Klucel (hydroxypropylcellulose) (HPC)): 87 % of control

NNS(=O)(=O)c1cc(Cl)c(Cl)cc1Cl
T/C (dose: 50.0 mg/kg/injection, schedule: Q01DX009 (ip), vehicle: Klucel (hydroxypropylcellulose) (HPC)): 94 % of control
T/C [8]: 98 % of control
T/C (dose: 200.0 mg/kg/injection, schedule: Q01DX009 (ip), vehicle: Klucel (hydroxypropylcellulose) (HPC)): 95 % of control
